US9550772B2, “Azaindole derivatives as multi kinase inhibitors” (ORIBASE PHARMA, priority 2012, dated 2017)
Read-outs that look alike come from different tables or passages of the source.

What was measured:
FGFR2 = biological target: T1, FGFR2 (Homo sapiens, UniProt P21802); assay: In vitro kinase assay (Z'-LYTE, Invitrogen); format: biochemical; settings: compound at 100 nM, ATP Km apparent, read-out: % of inhibition of the kinase compared to the control
T1 construct: purchased Invitrogen
In short: (§1)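 Kinase and dual-fluorophore peptide are combined with ATP at its apparent Km in HEPES pH 7.5 buffer containing MgCl2, EGTA and BRIJ-35, plus compound at 100 nM. Development protease then cleaves unphosphorylated peptide, and the emission ratio gives inhibition.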

SRC = biological target: T2, SRC (Homo sapiens, UniProt P12931); assay: In vitro kinase assay (Z'-LYTE, Invitrogen); format: biochemical; settings: compound at 100 nM, ATP Km apparent, read-out: % of inhibition of the kinase compared to the control
T2 construct: purchased Invitrogen
T2 sequence (P12931 whole entry): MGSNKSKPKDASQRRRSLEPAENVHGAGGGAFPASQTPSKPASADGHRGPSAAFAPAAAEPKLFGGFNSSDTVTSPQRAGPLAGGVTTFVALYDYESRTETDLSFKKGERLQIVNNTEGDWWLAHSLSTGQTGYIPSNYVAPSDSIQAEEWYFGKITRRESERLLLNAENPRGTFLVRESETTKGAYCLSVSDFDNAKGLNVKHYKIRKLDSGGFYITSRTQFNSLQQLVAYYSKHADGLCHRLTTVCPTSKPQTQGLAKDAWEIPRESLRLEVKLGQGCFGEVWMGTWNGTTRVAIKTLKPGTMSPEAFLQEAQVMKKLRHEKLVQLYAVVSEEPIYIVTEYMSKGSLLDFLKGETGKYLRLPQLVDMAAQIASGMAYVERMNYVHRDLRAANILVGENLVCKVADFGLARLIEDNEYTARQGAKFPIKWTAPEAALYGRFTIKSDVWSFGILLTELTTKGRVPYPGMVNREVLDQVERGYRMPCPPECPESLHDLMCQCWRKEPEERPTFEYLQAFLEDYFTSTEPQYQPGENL
In short: as §1

PDGFRA (PDGFR alpha) = biological target: T3, PDGFRA (PDGFR alpha) (Homo sapiens, UniProt P16234); assay: In vitro kinase assay (Z'-LYTE, Invitrogen); format: biochemical; settings: compound at 100 nM, ATP Km apparent, read-out: % of inhibition of the kinase compared to the control
T3 construct: purchased Invitrogen
T3 sequence (P16234 24-1089): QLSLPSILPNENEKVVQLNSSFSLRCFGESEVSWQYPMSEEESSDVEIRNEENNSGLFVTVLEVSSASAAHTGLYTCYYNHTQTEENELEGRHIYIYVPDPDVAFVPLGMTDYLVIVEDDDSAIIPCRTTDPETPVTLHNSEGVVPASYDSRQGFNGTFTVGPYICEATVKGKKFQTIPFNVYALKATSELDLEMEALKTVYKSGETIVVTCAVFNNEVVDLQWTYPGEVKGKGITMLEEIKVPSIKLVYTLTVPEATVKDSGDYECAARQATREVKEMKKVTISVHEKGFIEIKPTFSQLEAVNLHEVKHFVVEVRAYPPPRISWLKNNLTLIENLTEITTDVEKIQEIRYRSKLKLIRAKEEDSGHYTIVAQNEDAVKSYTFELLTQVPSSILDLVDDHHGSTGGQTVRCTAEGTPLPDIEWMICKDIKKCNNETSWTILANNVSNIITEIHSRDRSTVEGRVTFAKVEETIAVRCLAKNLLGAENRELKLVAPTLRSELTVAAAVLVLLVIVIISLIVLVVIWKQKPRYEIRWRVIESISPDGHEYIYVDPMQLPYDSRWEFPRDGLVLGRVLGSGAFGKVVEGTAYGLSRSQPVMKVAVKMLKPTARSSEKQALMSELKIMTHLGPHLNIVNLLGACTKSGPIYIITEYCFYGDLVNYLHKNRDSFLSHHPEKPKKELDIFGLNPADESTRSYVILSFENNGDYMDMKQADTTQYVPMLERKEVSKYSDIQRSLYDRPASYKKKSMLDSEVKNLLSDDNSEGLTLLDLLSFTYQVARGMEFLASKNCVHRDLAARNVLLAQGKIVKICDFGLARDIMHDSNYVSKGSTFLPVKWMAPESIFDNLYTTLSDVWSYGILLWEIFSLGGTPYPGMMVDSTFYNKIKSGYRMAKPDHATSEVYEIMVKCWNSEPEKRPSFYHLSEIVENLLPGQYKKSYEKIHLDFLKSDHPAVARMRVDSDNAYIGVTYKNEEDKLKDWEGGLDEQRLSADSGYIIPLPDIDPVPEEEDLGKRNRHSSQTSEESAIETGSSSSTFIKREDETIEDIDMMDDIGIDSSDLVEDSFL
In short: as §1

BRAF = biological target: T4, BRAF (Homo sapiens, UniProt P15056); assay: In vitro kinase assay (Z'-LYTE, Invitrogen); format: biochemical; settings: compound at 100 nM, ATP Km apparent, read-out: % of inhibition of the kinase compared to the control
T4 construct: purchased Invitrogen
T4 sequence (P15056 whole entry): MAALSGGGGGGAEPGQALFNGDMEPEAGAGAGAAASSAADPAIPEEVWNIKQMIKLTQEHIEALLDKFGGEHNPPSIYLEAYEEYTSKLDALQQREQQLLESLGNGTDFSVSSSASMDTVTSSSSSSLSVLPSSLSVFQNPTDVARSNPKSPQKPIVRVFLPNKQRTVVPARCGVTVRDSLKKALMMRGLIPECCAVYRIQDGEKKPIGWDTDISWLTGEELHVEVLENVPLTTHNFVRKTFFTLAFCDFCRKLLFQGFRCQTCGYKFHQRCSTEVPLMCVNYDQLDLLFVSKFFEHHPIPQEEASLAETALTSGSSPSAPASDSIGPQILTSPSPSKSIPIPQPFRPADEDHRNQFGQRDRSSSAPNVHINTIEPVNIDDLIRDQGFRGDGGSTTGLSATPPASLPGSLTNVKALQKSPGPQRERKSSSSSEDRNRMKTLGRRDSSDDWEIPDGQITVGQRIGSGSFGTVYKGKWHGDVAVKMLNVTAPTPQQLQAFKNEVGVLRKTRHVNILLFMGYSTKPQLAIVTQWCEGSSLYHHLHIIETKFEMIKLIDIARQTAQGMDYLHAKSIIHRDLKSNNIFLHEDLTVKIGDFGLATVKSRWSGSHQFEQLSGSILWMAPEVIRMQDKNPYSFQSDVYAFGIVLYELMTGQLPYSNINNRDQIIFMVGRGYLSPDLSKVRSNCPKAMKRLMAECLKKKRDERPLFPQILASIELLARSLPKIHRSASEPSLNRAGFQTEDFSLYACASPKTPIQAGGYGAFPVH
In short: as §1

EGFR (ErbB1) = biological target: T5, EGFR (ErbB1) (Homo sapiens, UniProt P00533); assay: In vitro kinase assay (Z'-LYTE, Invitrogen); format: biochemical; settings: compound at 100 nM, ATP Km apparent, read-out: % of inhibition of the kinase compared to the control
T5 construct: purchased Invitrogen
T5 sequence (P00533 25-1210): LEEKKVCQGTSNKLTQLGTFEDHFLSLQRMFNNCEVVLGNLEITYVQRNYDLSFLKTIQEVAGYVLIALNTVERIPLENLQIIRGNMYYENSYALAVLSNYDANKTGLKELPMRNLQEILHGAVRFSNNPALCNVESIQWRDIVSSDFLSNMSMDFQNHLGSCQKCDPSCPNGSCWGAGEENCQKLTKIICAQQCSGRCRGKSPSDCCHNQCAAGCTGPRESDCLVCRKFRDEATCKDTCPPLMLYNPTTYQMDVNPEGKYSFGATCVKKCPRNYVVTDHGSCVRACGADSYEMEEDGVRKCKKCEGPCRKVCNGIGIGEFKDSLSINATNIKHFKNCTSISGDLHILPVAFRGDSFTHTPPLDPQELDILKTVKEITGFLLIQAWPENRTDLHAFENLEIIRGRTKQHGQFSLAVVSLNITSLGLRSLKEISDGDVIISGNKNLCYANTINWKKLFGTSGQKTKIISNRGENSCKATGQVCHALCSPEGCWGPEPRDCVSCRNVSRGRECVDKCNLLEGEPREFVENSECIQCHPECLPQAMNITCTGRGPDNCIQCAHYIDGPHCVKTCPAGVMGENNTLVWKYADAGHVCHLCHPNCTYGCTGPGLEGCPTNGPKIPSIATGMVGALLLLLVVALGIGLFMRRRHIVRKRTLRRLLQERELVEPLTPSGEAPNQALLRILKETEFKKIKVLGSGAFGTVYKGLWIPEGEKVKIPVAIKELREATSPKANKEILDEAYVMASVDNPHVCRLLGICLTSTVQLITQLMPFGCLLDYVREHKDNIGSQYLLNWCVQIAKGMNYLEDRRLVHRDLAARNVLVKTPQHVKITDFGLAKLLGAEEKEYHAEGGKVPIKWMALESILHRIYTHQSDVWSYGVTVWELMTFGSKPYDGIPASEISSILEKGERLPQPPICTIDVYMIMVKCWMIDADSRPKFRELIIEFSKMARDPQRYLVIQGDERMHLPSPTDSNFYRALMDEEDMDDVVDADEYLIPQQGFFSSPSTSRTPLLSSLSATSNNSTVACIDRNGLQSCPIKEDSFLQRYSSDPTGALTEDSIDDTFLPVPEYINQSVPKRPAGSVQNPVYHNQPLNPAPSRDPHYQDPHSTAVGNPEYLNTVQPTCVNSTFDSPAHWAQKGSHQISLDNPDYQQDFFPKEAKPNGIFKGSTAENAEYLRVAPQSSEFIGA
In short: as §1

KDR (VEGFR2) = biological target: T6, KDR (VEGFR2) (Homo sapiens, UniProt P35968); assay: In vitro kinase assay (Z'-LYTE, Invitrogen); format: biochemical; settings: compound at 100 nM, ATP Km apparent, read-out: % of inhibition of the kinase compared to the control
T6 construct: purchased Invitrogen
In short: as §1

MDA-MB-231 cell line = assay: In vitro cell proliferation assay (MTT); format: cell-based; settings: Homo sapiens, MDA-MB-231, 72 hr, read-out: EC50, anti-proliferative activity
In short: (§2)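 MTT read-out after 72 hr exposure to escalating compound, 10 nM to 3 μM, in duplicate wells. Seeding 5×10^3 cells/well for tumour lines and 1×10^4 for HRMEC; EC50 derived by sigmoidal curve fitting, DMSO wells as 0% and 1% SDS wells as 100%.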

HeLa cell line = assay: In vitro cell proliferation assay (MTT); format: cell-based; settings: Homo sapiens, 72 hr, 100 nM < EC50 < 1 μM, read-out: EC50, anti-proliferative activity
In short: as §2

HepG2 cell line = assay: In vitro cell proliferation assay (MTT); format: cell-based; settings: Homo sapiens, HepG2, 72 hr, read-out: EC50, anti-proliferative activity
In short: as §2

HUVEC cells = assay: In vitro cell proliferation assay (MTT); format: cell-based; settings: Homo sapiens, 72 hr, read-out: EC50, anti-proliferative activity
In short: as §2

H1975 cell line = assay: In vitro cell proliferation assay (MTT); format: cell-based; settings: Homo sapiens, NCI-H1975, H1975, 72 hr, EC50 ≧ 1 μM, read-out: EC50, anti-proliferative activity
In short: as §2

A549 cell line = assay: In vitro cell proliferation assay (MTT); format: cell-based; settings: Homo sapiens, A549, 72 h, read-out: EC50, anti-proliferative activity
In short: as §2

HRMEC cells = assay: In vitro cell proliferation assay (MTT); format: cell-based; settings: 72 hr, read-out: EC50, anti-proliferative activity
In short: as §2

HT29 cell line = assay: In vitro cell proliferation assay (MTT); format: cell-based; settings: Homo sapiens, HT-29, HT29, 72 hr, EC50 ≧ 1 μM, read-out: EC50, anti-proliferative activity
In short: as §2

HuH7 cell line = assay: In vitro cell proliferation assay (MTT); format: cell-based; settings: Homo sapiens, Huh-7, HuH7, 72 hr, read-out: EC50, anti-proliferative activity
In short: as §2

EGFR (ErbB1) T790M L858R = biological target: T7, EGFR (ErbB1) T790M L858R (Homo sapiens, UniProt P00533, L858R/T790M); assay: In vitro kinase assay (Z'-LYTE, Invitrogen); format: biochemical; settings: compound at 100 nM, ATP Km apparent, read-out: % of inhibition of the kinase compared to the control
T7 construct: purchased Invitrogen
In short: as §1

HuCCT1 cell line = assay: In vitro cell proliferation assay (MTT); format: cell-based; settings: Homo sapiens, HuCCT-1, HuCCT1, 72 hr, EC50 ≧ 1 μM, read-out: EC50, anti-proliferative activity
In short: as §2

HuH6 Clone 5 cell line = assay: In vitro cell proliferation assay (MTT); format: cell-based; settings: HUH-6-clone5, HuH6 Clone 5, 72 hr, 100 nM < EC50 < 1 μM, read-out: EC50, anti-proliferative activity
In short: as §2

T1 sequence (P21802 22-821): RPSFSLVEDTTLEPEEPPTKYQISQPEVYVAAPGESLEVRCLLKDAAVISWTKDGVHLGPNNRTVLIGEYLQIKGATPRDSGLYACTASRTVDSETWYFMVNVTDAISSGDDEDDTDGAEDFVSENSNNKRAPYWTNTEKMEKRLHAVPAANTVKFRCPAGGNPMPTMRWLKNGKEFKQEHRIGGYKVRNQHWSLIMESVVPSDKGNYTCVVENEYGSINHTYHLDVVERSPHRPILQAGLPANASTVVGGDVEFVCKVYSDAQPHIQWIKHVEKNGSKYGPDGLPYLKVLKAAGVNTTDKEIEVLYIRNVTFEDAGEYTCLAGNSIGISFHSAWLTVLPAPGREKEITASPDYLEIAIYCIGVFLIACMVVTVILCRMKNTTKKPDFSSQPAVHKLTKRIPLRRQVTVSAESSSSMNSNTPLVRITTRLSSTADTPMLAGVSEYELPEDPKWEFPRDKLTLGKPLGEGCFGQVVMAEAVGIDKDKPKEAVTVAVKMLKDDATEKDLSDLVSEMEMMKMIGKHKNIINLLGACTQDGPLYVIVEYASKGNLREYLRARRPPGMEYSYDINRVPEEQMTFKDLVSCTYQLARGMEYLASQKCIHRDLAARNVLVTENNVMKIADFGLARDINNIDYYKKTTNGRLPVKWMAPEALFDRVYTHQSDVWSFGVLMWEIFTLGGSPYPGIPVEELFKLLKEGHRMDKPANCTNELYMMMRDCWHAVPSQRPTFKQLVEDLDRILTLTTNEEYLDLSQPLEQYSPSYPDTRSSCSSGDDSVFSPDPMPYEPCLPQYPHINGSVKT

Structure (SMILES) | inhibition at 0.1 µM (FGFR2) [%] | inhibition at 0.1 µM (SRC) [%] | inhibition at 0.1 µM (PDGFRA (PDGFR alpha)) [%] | inhibition at 0.1 µM (BRAF) [%] | inhibition at 0.1 µM (EGFR (ErbB1)) [%] | inhibition at 0.1 µM (KDR (VEGFR2)) [%] | EC50 (HeLa cell line) [nM] | EC50 (HepG2 cell line; 100 nM < EC50 < 1 μM) [nM] | EC50 (H1975 cell line) [nM] | EC50 (A549 cell line; EC50 ≦ 100 nM) [nM] | EC50 (HT29 cell line) [nM] | inhibition at 0.1 µM (EGFR (ErbB1) T790M L858R) [%] | EC50 (HepG2 cell line; EC50 ≧ 1 μM) [nM] | EC50 (HuCCT1 cell line) [nM] | EC50 (HUVEC cells; EC50 ≧ 1 μM) [nM] | EC50 (A549 cell line; EC50 ≧ 1 μM) [nM] | EC50 (HRMEC cells; EC50 ≧ 1 μM) [nM] | further results
CC(=O)c1cc2cc(CCc3cc(NC(=O)c4ccc(CN5CC[C@H](N(C)C)C5)c(C(F)(F)F)c4)ccc3C)cnc2[nH]1 [OR0812, N-{3-[2-(2-Acetyl-1H-pyrrolo[2,3-b]pyridin-5-yl)-ethyl]-4-methyl-phenyl}-4-((S)-3-dimethylamino-pyrrolidin-1-ylmethyl)-3-trifluoromethyl-benzamide] | ≥ 50 | ≥ 50 | ≥ 50 | ≥ 50 | ≥ 50 | ≥ 50 | 100 to 1000 | 100 to 1000 | ≥ 1000 | ≤ 100 | ≥ 1000 |  |  |  |  |  |  | EC50 (MDA-MB-231 cell line; 100 nM < EC50 < 1 μM): 100 to 1000 nM; EC50 (HUVEC cells; 100 nM < EC50 < 1 μM): 100 to 1000 nM; EC50 (HRMEC cells; 100 nM < EC50 < 1 μM): 100 to 1000 nM; EC50 (HuH7 cell line; 100 nM < EC50 < 1 μM): 100 to 1000 nM
COC(=O)c1cc2cc(CNc3cc(NC(=O)c4ccc(CN5CCN(C)CC5)cc4)ccc3C)cnc2[nH]1 [OR0746, 5-({2-Methyl-5-[4-(4-methyl-piperazin-1-ylmethyl)-benzoylamino]-phenylamino}-methyl)-1H-pyrrolo[2,3-b]pyridine-2-carboxylic acid methyl ester] | < 50 | < 50 | ≥ 50 | < 50 | ≥ 50 | < 50 |  |  | ≥ 1000 |  | ≥ 1000 | < 50 | ≥ 1000 | ≥ 1000 | ≥ 1000 | ≥ 1000 | ≥ 1000 | 
COC(=O)c1cc2cc(COc3cc(NC(=O)c4ccc(CN5CCN(C)CC5)cc4)ccc3C)cnc2[nH]1 [OR0779, 5-{2-Methyl-5-[4-(4-methyl-piperazin-1-ylmethyl)-benzoylamino]-phenoxymethyl}-1H-pyrrolo[2,3-b]pyridine-2-carboxylic acid methyl ester] | < 50 | ≥ 50 | ≥ 50 | < 50 | ≥ 50 | ≥ 50 |  |  | ≥ 1000 |  | ≥ 1000 | < 50 | ≥ 1000 | ≥ 1000 | ≥ 1000 | ≥ 1000 | ≥ 1000 | 
CC(=O)c1cc2cc(CCc3cc(NC(=O)c4ccc(CN5CCN(C)CC5)c(C(F)(F)F)c4)ccc3C)cnc2[nH]1 [OR0797, N-{3-[2-(2-Acetyl-1H-pyrrolo[2,3-b]pyridin-5-yl)-ethyl]-4-methyl-phenyl}-4-(4-methyl-piperazin-1-ylmethyl)-3-trifluoromethyl-benzamide] | ≥ 50 | ≥ 50 | ≥ 50 | ≥ 50 | ≥ 50 | ≥ 50 | 100 to 1000 | 100 to 1000 |  | ≤ 100 |  |  |  | ≥ 1000 |  |  |  | EC50 (MDA-MB-231 cell line; EC50 ≦ 100 nM): ≤ 100 nM; EC50 (HUVEC cells; EC50 ≦ 100 nM): ≤ 100 nM; EC50 (HRMEC cells; EC50 ≦ 100 nM): ≤ 100 nM; EC50 (HuH7 cell line; EC50 ≦ 100 nM): ≤ 100 nM; EC50 (HuH6 Clone 5 cell line): 100 to 1000 nM
